Measured values: ChEMBL document CHEMBL5465560, “Selectivity Literature for EUbOPEN Chemogenomic Library” (2024)

Key:
[1] = target: Glutamate receptor ionotropic, NMDA 2B (Homo sapiens) (UniProt Q13224); experiment: Selectivity interaction (Panel of kinases, GPCRs, ion channels and transporters (enzymatic assay)) EUB0000266bCl GRIN2B
[2] = target: T1, Cyclin-dependent kinase 11A (Homo sapiens) (UniProt Q9UQ88); experiment: Selectivity interaction (ActivX KiNativ screen (kinase selectivity in THP-1 cell lysates)) EUB0000639a CDK11A; type: subcellular; settings: lysate, at 0.04 µM
T1 sequence (whole entry): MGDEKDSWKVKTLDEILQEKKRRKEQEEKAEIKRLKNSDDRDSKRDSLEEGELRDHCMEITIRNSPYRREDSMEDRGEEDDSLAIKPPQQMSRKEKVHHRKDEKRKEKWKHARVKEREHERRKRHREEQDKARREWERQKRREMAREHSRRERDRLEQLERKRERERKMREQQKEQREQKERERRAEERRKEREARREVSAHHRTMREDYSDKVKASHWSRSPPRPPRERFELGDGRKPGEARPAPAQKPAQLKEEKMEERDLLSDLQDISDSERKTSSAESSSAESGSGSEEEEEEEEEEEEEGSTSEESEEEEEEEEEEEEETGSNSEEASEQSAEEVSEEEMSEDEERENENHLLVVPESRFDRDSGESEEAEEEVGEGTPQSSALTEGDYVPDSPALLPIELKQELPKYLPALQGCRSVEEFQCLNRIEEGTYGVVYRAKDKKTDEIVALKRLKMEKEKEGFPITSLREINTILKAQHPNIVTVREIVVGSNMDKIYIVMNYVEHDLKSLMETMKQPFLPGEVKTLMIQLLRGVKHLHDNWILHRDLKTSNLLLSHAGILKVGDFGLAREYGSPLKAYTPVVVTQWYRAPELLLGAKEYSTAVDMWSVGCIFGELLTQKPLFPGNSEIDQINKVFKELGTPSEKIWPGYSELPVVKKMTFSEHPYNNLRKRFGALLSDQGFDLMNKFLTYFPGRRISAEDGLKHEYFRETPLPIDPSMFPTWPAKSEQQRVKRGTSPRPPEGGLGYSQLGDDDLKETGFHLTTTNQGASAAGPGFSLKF

[3] = target: T2, Inhibitor of nuclear factor kappa-B kinase subunit epsilon (Homo sapiens) (UniProt Q14164); experiment: Selectivity interaction (ActivX KiNativ screen (kinase selectivity in THP-1 cell lysates)) EUB0000639a IKBKE; type: subcellular; settings: lysate, at 1 µM
T2 sequence (whole entry): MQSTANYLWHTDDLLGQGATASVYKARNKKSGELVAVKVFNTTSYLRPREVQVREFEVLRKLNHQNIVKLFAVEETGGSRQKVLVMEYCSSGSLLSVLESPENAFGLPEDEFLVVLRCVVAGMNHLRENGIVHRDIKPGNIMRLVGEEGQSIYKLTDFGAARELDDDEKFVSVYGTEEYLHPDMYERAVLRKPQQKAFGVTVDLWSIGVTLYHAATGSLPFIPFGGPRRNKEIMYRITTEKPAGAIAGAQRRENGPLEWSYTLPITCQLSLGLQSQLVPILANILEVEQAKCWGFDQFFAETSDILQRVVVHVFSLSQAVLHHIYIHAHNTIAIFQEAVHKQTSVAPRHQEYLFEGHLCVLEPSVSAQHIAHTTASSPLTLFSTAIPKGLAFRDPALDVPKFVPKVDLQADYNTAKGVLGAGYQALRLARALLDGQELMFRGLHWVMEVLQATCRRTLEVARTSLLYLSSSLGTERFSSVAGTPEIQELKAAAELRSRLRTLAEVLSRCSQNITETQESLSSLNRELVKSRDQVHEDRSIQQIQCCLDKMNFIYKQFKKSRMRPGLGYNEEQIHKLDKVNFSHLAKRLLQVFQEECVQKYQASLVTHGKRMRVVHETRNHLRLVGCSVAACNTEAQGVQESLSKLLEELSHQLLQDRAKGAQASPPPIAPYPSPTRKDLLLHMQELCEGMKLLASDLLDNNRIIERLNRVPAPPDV

[4] = target: Tyrosine-protein kinase Fgr (Homo sapiens) (UniProt P09769); experiment: Selectivity interaction (KinomeScan (DiscoverX)) EUB0000695a FGR; settings: at 100 nM
[5] = target: Serine/threonine-protein kinase PAK 6 (Homo sapiens) (UniProt Q9NQU5); experiment: Selectivity interaction (KinomeScan (DiscoverX)) EUB0000695a PAK6; settings: at 100 nM
Focal adhesion kinase 1 = Focal adhesion kinase 1 (Homo sapiens, UniProt Q05397); experiment: Selectivity interaction (KinomeScan (DiscoverX)) EUB0000695a PTK2; settings: at 100 nM
[6] = target: cAMP-dependent protein kinase catalytic subunit beta (Homo sapiens) (UniProt P22694); settings: at 10 µM
[7] = test system: Leucine-rich repeat serine/threonine-protein kinase 2 (Homo sapiens), Q5S007 [G2019S]; experiment: (§1) Selectivity interaction (KinomeScan (DiscoverX)) EUB0000595a LRRK2; settings: at 10 µM
[8] = target: Leucine-rich repeat serine/threonine-protein kinase 2 (Homo sapiens, UniProt Q5S007); experiment: as §1; settings: at 10 µM
[9] = target: CDK8/Cyclin C (Homo sapiens) (UniProt P49336+P24863); experiment: Selectivity interaction (ProQinase) EUB0000171b CDK8; type: protein-complex assay
[10] = target: Bromodomain-containing protein 9 (Homo sapiens) (UniProt Q9H8M2); experiment: Selectivity interaction (Human bromodomain panel (DSF assay)) EUB0000233b BRD9
[11] = target: T3, Dual specificity mitogen-activated protein kinase kinase 4 (Homo sapiens) (UniProt P45985); experiment: Selectivity interaction (ActivX KiNativ screen (ex vivo kinase selectivity in human PBMCs)) EUB0001619a MAP2K4; type: cell-based; settings: PBMC, at 1 µM
T3 sequence (whole entry): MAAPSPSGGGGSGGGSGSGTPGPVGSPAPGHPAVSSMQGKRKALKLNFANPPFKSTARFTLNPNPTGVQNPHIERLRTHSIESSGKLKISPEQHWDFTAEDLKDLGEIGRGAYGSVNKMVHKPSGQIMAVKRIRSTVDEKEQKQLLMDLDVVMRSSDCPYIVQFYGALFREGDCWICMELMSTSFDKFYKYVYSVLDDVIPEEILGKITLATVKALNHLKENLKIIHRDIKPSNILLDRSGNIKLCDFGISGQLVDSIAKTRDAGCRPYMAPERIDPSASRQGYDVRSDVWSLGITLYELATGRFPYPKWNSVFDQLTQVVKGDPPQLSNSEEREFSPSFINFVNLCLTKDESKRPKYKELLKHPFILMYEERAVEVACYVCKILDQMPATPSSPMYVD

[12] = target: Serine/threonine-protein kinase PAK 1 (Homo sapiens) (UniProt Q13153); experiment: Selectivity interaction (KinomeScan (DiscoverX)) EUB0000618a PAK1; settings: at 10 µM
[13] = target: Serine/threonine-protein kinase WNK1 (Homo sapiens) (UniProt Q9H4A3); experiment: Selectivity interaction (Kinase panel (KiNativ target engagement assay in Jurkat cells)) EUB0001635a WNK1; type: cell-based; settings: at 1 µM
[14] = target: STE20/SPS1-related proline-alanine-rich protein kinase (Homo sapiens) (UniProt Q9UEW8); experiment: Selectivity interaction (KinomeScan (DiscoverX)) EUB0000666a STK39; settings: at 10 µM

Serine/threonine-protein kinase WNK1 (Homo sapiens), sequence (Q9H4A3 whole entry, looked up): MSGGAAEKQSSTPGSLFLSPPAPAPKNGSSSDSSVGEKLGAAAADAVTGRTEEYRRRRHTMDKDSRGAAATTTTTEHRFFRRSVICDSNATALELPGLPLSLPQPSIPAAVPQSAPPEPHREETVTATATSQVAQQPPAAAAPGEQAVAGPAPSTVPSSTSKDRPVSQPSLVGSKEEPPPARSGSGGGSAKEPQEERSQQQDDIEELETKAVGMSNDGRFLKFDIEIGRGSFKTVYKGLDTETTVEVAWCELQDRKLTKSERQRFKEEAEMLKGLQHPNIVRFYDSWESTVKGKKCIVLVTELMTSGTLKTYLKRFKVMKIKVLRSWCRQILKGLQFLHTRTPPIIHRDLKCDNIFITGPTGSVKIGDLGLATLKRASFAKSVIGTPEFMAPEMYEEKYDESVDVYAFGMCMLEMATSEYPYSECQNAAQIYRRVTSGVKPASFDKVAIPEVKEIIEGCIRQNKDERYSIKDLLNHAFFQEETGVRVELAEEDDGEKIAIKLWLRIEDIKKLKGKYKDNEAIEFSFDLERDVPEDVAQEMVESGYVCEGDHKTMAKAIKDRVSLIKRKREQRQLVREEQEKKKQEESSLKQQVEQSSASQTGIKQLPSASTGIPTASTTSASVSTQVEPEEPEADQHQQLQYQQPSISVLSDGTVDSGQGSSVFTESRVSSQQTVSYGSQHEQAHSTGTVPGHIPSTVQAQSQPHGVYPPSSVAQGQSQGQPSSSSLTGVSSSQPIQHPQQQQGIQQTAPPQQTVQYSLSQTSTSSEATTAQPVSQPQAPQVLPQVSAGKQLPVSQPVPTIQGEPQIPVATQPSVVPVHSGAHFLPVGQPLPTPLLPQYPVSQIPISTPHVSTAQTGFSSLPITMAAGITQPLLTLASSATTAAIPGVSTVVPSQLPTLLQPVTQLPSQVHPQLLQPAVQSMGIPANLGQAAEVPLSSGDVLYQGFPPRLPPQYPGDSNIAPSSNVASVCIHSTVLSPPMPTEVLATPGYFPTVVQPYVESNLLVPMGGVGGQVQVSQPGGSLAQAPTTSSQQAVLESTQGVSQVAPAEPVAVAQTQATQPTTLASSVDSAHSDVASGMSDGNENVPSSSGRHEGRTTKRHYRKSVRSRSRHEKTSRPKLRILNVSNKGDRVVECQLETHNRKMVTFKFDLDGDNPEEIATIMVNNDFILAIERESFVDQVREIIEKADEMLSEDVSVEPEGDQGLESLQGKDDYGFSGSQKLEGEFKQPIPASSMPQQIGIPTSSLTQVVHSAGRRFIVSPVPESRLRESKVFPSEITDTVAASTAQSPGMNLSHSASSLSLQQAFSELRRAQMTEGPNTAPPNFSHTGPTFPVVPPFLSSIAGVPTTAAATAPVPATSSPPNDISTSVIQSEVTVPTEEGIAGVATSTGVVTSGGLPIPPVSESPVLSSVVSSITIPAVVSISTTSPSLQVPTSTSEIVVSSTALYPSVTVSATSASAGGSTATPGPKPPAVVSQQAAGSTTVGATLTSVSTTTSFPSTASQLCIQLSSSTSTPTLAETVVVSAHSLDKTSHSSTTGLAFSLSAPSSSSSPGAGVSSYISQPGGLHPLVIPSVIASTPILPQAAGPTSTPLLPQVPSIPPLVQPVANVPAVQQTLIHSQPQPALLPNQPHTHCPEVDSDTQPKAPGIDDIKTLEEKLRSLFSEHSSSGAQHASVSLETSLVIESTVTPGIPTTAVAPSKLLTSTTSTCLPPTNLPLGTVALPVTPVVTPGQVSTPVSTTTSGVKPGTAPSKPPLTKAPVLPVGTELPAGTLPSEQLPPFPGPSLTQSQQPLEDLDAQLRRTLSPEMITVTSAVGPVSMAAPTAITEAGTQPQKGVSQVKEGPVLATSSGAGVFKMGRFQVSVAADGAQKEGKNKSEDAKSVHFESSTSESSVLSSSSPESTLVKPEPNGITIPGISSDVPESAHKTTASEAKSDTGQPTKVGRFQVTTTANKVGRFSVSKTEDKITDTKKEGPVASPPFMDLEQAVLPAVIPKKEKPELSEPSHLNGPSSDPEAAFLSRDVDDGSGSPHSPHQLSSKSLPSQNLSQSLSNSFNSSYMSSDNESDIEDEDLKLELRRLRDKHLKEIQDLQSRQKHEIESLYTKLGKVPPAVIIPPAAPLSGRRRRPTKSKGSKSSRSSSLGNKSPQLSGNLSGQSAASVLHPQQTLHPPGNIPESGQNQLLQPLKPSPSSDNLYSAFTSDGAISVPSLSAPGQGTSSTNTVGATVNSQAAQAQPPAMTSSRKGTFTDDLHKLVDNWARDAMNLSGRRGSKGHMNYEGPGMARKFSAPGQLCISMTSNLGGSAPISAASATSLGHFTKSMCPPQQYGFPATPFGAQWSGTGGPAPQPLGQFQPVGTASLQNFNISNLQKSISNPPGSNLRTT
Leucine-rich repeat serine/threonine-protein kinase 2 (Homo sapiens), Q5S007 [G2019S], sequence (Q5S007 whole entry G2019S): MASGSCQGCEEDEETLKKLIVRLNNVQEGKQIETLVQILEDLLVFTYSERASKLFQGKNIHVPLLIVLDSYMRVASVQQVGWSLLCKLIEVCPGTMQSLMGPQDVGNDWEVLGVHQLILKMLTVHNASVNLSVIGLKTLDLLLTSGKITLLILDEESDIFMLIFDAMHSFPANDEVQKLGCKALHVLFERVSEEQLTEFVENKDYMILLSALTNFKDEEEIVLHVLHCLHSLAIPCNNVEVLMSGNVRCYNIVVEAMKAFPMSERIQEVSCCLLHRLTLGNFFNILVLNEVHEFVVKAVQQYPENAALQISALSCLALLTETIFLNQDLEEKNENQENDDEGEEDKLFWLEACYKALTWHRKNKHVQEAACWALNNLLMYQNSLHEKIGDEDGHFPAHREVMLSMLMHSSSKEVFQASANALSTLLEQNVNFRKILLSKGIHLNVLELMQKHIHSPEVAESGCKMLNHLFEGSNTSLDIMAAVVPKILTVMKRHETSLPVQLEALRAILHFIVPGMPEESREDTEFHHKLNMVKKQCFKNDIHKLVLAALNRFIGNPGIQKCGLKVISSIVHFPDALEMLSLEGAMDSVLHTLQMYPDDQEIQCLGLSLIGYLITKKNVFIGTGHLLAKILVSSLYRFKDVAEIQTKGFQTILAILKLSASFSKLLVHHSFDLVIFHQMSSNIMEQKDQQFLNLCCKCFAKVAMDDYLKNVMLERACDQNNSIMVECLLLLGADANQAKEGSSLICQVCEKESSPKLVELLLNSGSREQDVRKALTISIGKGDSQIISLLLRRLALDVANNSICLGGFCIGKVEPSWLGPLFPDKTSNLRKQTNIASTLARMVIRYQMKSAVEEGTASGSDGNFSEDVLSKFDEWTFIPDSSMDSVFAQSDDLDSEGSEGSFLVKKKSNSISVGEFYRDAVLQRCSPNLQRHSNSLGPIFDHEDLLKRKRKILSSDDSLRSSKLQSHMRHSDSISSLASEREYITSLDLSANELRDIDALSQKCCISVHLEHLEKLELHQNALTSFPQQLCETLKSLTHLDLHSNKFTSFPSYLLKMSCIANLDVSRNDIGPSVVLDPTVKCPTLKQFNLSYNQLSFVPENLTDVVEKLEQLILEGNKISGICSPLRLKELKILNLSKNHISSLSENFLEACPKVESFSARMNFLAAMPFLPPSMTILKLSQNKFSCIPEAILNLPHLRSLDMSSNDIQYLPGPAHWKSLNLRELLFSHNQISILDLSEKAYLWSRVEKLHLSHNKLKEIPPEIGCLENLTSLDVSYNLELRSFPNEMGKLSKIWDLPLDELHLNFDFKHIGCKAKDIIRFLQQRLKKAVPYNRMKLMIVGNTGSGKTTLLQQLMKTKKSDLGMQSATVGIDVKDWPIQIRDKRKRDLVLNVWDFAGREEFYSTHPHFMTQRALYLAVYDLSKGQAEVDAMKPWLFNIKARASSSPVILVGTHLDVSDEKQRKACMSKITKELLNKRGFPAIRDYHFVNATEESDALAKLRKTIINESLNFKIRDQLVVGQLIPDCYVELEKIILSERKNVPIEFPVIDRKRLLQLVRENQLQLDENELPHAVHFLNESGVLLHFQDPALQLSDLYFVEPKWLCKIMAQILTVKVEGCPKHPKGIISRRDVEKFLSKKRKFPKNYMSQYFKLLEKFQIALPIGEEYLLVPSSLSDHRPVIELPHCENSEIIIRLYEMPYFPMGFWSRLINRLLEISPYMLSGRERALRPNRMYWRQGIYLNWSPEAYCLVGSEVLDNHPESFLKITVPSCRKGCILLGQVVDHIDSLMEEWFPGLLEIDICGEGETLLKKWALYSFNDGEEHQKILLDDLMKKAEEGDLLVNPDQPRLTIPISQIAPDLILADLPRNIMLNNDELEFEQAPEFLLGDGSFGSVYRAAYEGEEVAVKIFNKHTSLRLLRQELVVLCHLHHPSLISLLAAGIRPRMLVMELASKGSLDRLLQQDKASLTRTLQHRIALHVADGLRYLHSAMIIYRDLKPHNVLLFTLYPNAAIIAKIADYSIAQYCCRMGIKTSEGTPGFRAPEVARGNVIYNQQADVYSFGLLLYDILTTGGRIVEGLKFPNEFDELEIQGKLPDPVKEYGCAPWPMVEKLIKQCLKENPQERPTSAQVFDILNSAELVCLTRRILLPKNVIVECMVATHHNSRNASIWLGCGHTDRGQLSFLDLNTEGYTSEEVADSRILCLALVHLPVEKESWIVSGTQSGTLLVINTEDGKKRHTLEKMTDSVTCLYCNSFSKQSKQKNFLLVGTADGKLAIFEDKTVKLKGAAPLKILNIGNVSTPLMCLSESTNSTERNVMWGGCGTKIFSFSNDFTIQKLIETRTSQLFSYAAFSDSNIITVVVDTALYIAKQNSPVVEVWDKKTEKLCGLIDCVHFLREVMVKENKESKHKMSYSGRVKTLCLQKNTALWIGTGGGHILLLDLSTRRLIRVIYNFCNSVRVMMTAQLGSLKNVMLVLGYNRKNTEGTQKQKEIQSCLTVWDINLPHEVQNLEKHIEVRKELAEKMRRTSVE
Leucine-rich repeat serine/threonine-protein kinase 2, sequence (Q5S007 whole entry): as the sequence (Q5S007 whole entry G2019S) above, with S2019G counted along it

Work on `CCn1c(-c2nc3cc(C(=O)N4CCCC(N)C4)ccc3n2C)cc2ccccc21` (stereo unspecified) yielded a pXC50 [1] of under 4.3 M.

Work on `CC[C@@H]1[C@H](F)C(=O)N[C@@H]1COc1nccc2cc(C(N)=O)c(OC)cc12` [ZIMLOVISERTIB] yielded a % of inhibition [2] of 6.9% and a % of inhibition [3] of 10%.

In the case of `Cc1cc(F)c(C(=O)Nc2cccc(-c3nncn3C(C)C)n2)cc1-n1cnc(C2CC2)c1`, the % of control [4] is reported as 96%, the % of control [5] is reported as 97% and the % of control (Focal adhesion kinase 1) is reported as 100%.

With `COCC(=O)NC/C=C/c1ccc2ncnc(Nc3ccc(Oc4ccc(C)nc4)c(C)c3)c2c1` [CP-724714] the % of control [6] was 100%, the % of control [7] was 98% and the % of control [8] was 100%.

`C=CC(=O)Nc1cccc(C(=O)Nc2ccc(Nc3cc(-c4[nH]c(SC)nc4C)ccn3)cc2)c1` showed a % of control ([9]; at 1 µM) of 67% and a % of control ([9]; at 5 µM) of 29%.

With `CN(C)CCCOc1ccc(-c2cc(NCCCn3cccn3)nc(S(C)(=O)=O)n2)cc1` the dTM [10] was 4.8 K.

In the case of `N#Cc1cccc(-c2c[nH]c3ncnc(N4CCOCC4)c23)c1`, the % of inhibition [11] is reported as -17%.

For `O[C@H]1CC[C@H](Nc2ncc3nc(Nc4c(F)cc(F)cc4F)n([C@H]4CCOC4)c3n2)CC1`, the % of control [12] was 99%.

`C=CC(=O)Nc1ccc(C(=O)Nc2[nH]nc3c2CN(C(=O)N[C@H](CN(C)C)c2ccccc2)C3(C)C)cc1` was tested, and the % of engagement [13] was -16.1%.

`O=C(NOC[C@H](O)CO)c1ccc(F)c(F)c1Nc1ccc(I)cc1F` gave a % of control [14] of 96%.
